Test results published in US6635635B2, “Benzothiadiazine compounds” (Les Laboratoires Servier, priority 2000, dated 2003).

system: AMPA receptor; assay: Study of excitatory fluxes induced by AMPA in Xenopus oocytes (2-electrode voltage-clamp); type: cell-based; conditions: Xenopus oocytes injected with poly(A+) mRNA from rat cerebral cortex; AMPA 10 μM; 20-24° C.
Description: Study of Excitatory Fluxes Induced by AMPA in Xenopus oocytes
mRNAs are prepared from cerebral cortex of male Wistar rat by the guanidium thiocyanate/phenol/chloroform method. The poly (A^+) mRNAs are isolated by chromatography on oligo-dT cellulose and injected with 50 ng per oocyte. The oocytes are left for 2 to 3 days' incubation at 18° C. to enable expression of the receptors and are then stored at 8-10° C.
Electrophysiological recording is carried out in a Plexiglass® chamber at 20-24° C. in an OR2 medium (J. Exp. Zool., 1973, 184, 321-334) by the 2-electrode “voltage-clamp” method, with a 3rd electrode being placed in the bath to serve as reference.
All the compounds are administered via the incubation medium and the electric current is measured at the end of the period of administration. AMPA is used in a concentration of 10 μM. For each compound studied, there is determined the concentration that doubles (EC2X) or quintuples (EC5X) the intensity of the flux induced by AMPA alone (5 to 50 nA).

`Cc1ccc(C(=O)Oc2ccc3c(c2)S(=O)(=O)NC2CCCN32)cc1` (stereo not drawn) [Ex. 28, 5,5-Dioxo-2,3,3a,4-tetrahydro-1H-pyrrolo[2,1-c][1,2,4]-benzothiadiazin-7-yl 4-methylbenzoate] and `O=C(Oc1ccc2c(c1)S(=O)(=O)NC1CCCN21)c1ccccc1` (stereo not drawn) [Ex. 11, 5,5-Dioxo-2,3,3a,4-tetrahydro-1H-pyrrolo[2,1-c][1,2,4]benzothiadiazin-7-yl benzoate] are within 1.5-fold of each other in “EC2X (concentration that doubles the intensity of the flux induced by AMPA alone)” value (from here on “EC2X”): 3.6 µM for the first, 5 µM for the second.

`CC(=O)Oc1ccc2c(c1)S(=O)(=O)NC1CCCN21` (single isomer, unassigned) [Ex. 8, 5,5-Dioxo-2,3,3a,4-tetrahydro-1H-pyrrolo[2,1-c][1,2,4]benzothiadiazin-7-yl acetate, α isomer dextro] and `CC(C)(C)C(=O)Oc1ccc2c(c1)S(=O)(=O)NC1CCCN21` (stereo not drawn) [Ex. 10, 5,5-Dioxo-2,3,3a,4-tetrahydro-1H-pyrrolo[2,1-c][1,2,4]benzothiadiazin-7-yl pivalate] are within 1.5-fold of each other in “EC2X” value: 20 µM for the first, 14 µM for the second.

First: O=C(Oc1ccc2c(c1)S(=O)(=O)NC1CCCN21)c1ccco1 (stereo not drawn) [Ex. 36, 5,5-Dioxo-2,3,3a,4-tetrahydro-1H-pyrrolo[2,1-c][1,2,4]-benzothiadiazin-7-yl 2-furancarboxylate]
Second: O=C(Oc1ccc2c(c1)S(=O)(=O)NC1CCCN21)c1cccs1 (stereo not drawn) [Ex. 34, 5,5-Dioxo-2,3,3a,4-tetrahydro-1H-pyrrolo[2,1-c][1,2,4]-benzothiadiazin-7-yl 2-thiophenecarboxylate]
The “EC2X” value of the first is 1.5-fold higher: 2.0 µM for the first, 1.3 µM for the second.

Compared with `CC(=O)Oc1ccc2c(c1)S(=O)(=O)NC1CCCN21` (stereo not drawn) [Ex. 7, 5,5-Dioxo-2,3,3a,4-tetrahydro-1H-pyrrolo[2,1c][1,2,4]benzothiadiazin-7-yl acetate], `O=S1(=O)NC2CCCN2c2ccc(O)cc21` (stereo not drawn) [Ex. 1, 5,5-Dioxo-2,3,3a,4-tetrahydro-1H-pyrrolo[2,1-c][1,2,4]benzothiadiazin-7-ol] is 2.8-fold lower in “EC2X” value: 34 µM for the first, 12 µM for the second.

First: CC(=O)Oc1ccc2c(c1)S(=O)(=O)NC1CCCN21 (single isomer, unassigned) [Ex. 9, 5,5-Dioxo-2,3,3a,4-tetrahydro-1H-pyrrolo[2,1-c][1,2,4]benzothiadiazin-7-yl acetate, β isomer levo]
Second: O=C(Oc1ccc2c(c1)S(=O)(=O)NC1CCCN21)c1cccnc1 (stereo not drawn) [Ex. 37, 5,5-Dioxo-2,3,3a,4-tetrahydro-1H-pyrrolo[2,1-c][1,2,4]-benzothiadiazin-7-yl nicotinate]
The “EC2X” value of the first is 74-fold higher: 296 µM for the first, 4.0 µM for the second.

With `O=S1(=O)NC2CCCN2c2cc(F)c(O)cc21` (stereo not drawn) [Ex. 4, 5,5-Dioxo-8-fluoro-2,3,3a,4-tetrahydro-1H-pyrrolo[2,1-c][1,2,4]-benzothiadiazin-7-ol] the “EC2X” value was 35 µM.

system: not given; assay: not given; conditions: not given

First: O=C(Oc1ccc2c(c1)S(=O)(=O)NC1CCCN21)c1cccc(Cl)c1 (stereo not drawn) [Example 26, 5,5-Dioxo-2,3,3a,4-tetrahydro-1H-pyrrolo[2,1-c][1,2,4]-benzothiadiazin-7-yl 3-chlorobenzoate]
Second: Cc1cccc(C(=O)Oc2ccc3c(c2)S(=O)(=O)NC2CCCN32)c1 (stereo not drawn) [Example 29, 5,5-Dioxo-2,3,3a,4-tetrahydro-1H-pyrrolo[2,1-c][1,2,4]-benzothiadiazin-7-yl 3-methylbenzoate]
The melting point of the first is higher: 243 to 247 °C for the first, 214 to 218 °C for the second.

First: O=C(Oc1ccc2c(c1)S(=O)(=O)NC1CCCN21)c1ccsc1 (stereo not drawn) [Example 33, 5,5-Dioxo-2,3,3a,4-tetrahydro-1H-pyrrolo[2,1-c][1,2,4]-benzothiadiazin-7-yl 3-thiophenecarboxylate]
Second: O=C(Oc1ccc2c(c1)S(=O)(=O)NC1CCCN21)c1cccs1 (stereo not drawn) [Ex. 34, 5,5-Dioxo-2,3,3a,4-tetrahydro-1H-pyrrolo[2,1-c][1,2,4]-benzothiadiazin-7-yl 2-thiophenecarboxylate]
The melting point of the first is lower: 208 to 212 °C for the first, 212 to 214 °C for the second.

First: O=C(Cc1ccccc1)Oc1ccc2c(c1)S(=O)(=O)NC1CCCN21 (stereo not drawn)
Second: O=C(C=Cc1ccccc1)Oc1ccc2c(c1)S(=O)(=O)NC1CCCN21 (stereo not drawn) [Example 23, 5,5-Dioxo-2,3,3a,4-tetrahydro-1H-pyrrolo[2,1-c][1,2,4]-benzothiadiazin-7-yl 3-phenyl-2-propenoate]
The melting point of the first is lower: 169 to 171 °C for the first, 193 to 198 °C for the second.

Compared with `Cc1ccc(C(=O)Oc2ccc3c(c2)S(=O)(=O)NC2CCCN32)cc1` (stereo not drawn) [Ex. 28, 5,5-Dioxo-2,3,3a,4-tetrahydro-1H-pyrrolo[2,1-c][1,2,4]-benzothiadiazin-7-yl 4-methylbenzoate], `COc1ccc(C(=O)Oc2ccc3c(c2)S(=O)(=O)NC2CCCN32)cc1` (stereo not drawn) [Example 24, 5,5-Dioxo-2,3,3a,4-tetrahydro-1H-pyrrolo[2,1-c][1,2,4]-benzothiadiazin-7-yl 4-methoxybenzoate] is higher in melting point: 198 to 200 °C for the first, 216 to 221 °C for the second.

`Cl.O=C(Oc1ccc2c(c1)S(=O)(=O)NC1CCCN21)c1ccccn1` (stereo not drawn) and `O=C(Oc1ccc2c(c1)S(=O)(=O)NC1CCCN21)c1cccnc1` (stereo not drawn) [Ex. 37, 5,5-Dioxo-2,3,3a,4-tetrahydro-1H-pyrrolo[2,1-c][1,2,4]-benzothiadiazin-7-yl nicotinate] fall in the same range of melting point: 227 to 230 °C for the first, 227 to 230 °C for the second.

First: Cc1ccccc1C(=O)Oc1ccc2c(c1)S(=O)(=O)NC1CCCN21 (stereo not drawn) [Example 30, 5,5-Dioxo-2,3,3a,4-tetrahydro-1H-pyrrolo[2,1-c][1,2,4]-benzothiadiazin-7-yl 2-methylbenzoate]
Second: O=C(Oc1ccc2c(c1)S(=O)(=O)NC1CCCN21)c1ccco1 (stereo not drawn) [Ex. 36, 5,5-Dioxo-2,3,3a,4-tetrahydro-1H-pyrrolo[2,1-c][1,2,4]-benzothiadiazin-7-yl 2-furancarboxylate]
The melting point of the first is higher: 218 to 221 °C for the first, 205 to 208 °C for the second.

Compared with `N#Cc1ccc(C(=O)Oc2ccc3c(c2)S(=O)(=O)NC2CCCN32)cc1` (stereo not drawn) [Example 27, 5,5-Dioxo-2,3,3a,4-tetrahydro-1H-pyrrolo[2,1-c][1,2,4]-benzothiadiazin-7-yl 4-cyanobenzoate], `N#Cc1cccc(C(=O)Oc2ccc3c(c2)S(=O)(=O)NC2CCCN32)c1` (stereo not drawn) [Example 31, 5,5-Dioxo-2,3,3a,4-tetrahydro-1H-pyrrolo[2,1-c][1,2,4]-benzothiadiazin-7-yl 3-cyanobenzoate] is lower in melting point: 260 to 264 °C for the first, 203 to 206 °C for the second.

First: O=C(Oc1ccc2c(c1)S(=O)(=O)NC1CCCN21)c1ccc2ccccc2c1 (stereo not drawn) [Example 20, 5,5-Dioxo-2,3,3a,4-tetrahydro-1H-pyrrolo[2,1-c][1,2,4]-benzothiadiazin-7-yl 2-naphthalenecarboxylate]
Second: O=C(Oc1ccc2c(c1)S(=O)(=O)NC1CCCN21)c1ccc(-c2ccccc2)cc1 (stereo not drawn) [Example 21, 5,5-Dioxo-2,3,3a,4-tetrahydro-1H-pyrrolo[2,1-c][1,2,4]-benzothiadiazin-7-yl [1,1′-biphenyl]-4-carboxylate]
The melting point of the first is lower: 207 to 210 °C for the first, 249 to 253 °C for the second.

`O=C(Oc1ccc2c(c1)S(=O)(=O)NC1CCCN21)C1CCC1` (stereo not drawn) [Example 17, 5,5-Dioxo-2,3,3a,4-tetrahydro-1H-pyrrolo[2,1-c][1,2,4]-benzothiadiazin-7-yl cyclobutanecarboxylate] and `O=C(Oc1ccc2c(c1)S(=O)(=O)NC1CCCN21)C1CC1` (stereo not drawn) [Example 18, 5,5-Dioxo-2,3,3a,4-tetrahydro-1H-pyrrolo[2,1-c][1,2,4]-benzothiadiazin-7-yl cyclopropanecarboxylate] cannot be ordered by melting point: 166 to 170 °C for the first, 169 to 171 °C for the second.

First: O=C(Oc1ccc2c(c1)S(=O)(=O)NC1CCCN21)C1CCCCC1 (stereo not drawn) [Example 14, 5,5-Dioxo-2,3,3a,4-tetrahydro-1H-pyrrolo[2,1-c][1,2,4]-benzothiadiazin-7-yl cyclohexanecarboxylate]
Second: O=C(Oc1ccc2c(c1)S(=O)(=O)NC1CCCN21)C1CCCC1 (stereo not drawn) [Example 16, 5,5-Dioxo-2,3,3a,4-tetrahydro-1H-pyrrolo[2,1-c][1,2,4]-benzothiadiazin-7-yl cyclopentanecarboxylate]
The melting point of the first is higher: 157 °C for the first, 148 to 150 °C for the second.

First: O=C(Oc1ccc2c(c1)S(=O)(=O)NC1CCCN21)c1ccoc1 (stereo not drawn) [Example 35, 5,5-Dioxo-2,3,3a,4-tetrahydro-1H-pyrrolo[2,1-c][1,2,4]-benzothiadiazin-7-yl 3-furancarboxylate]
Second: Cl.O=C(Oc1ccc2c(c1)S(=O)(=O)NC1CCCN21)c1ccncc1 (stereo not drawn)
The melting point of the first is lower: 185 to 187 °C for the first, 243 to 247 °C for the second.
